Experimental data taken from the Bradley open melting point set (2014).

First: O=C(CC(=O)C(F)(F)F)c1ccco1 [4,4,4-trifluoro-1-(2-furyl)-1,3-butanedione]
Second: O=C(O)Cc1ccc(OC(F)(F)F)cc1 [4-(trifluoromethoxy)phenylacetic acid]
The melting point of the first is lower: 21 °C for the first, 87 °C for the second.

Going from `CC1(C)C(=O)OOC1=O` [4,4-dimethyl-1,2-dioxolane-3,5-dione] to `O=C1OC(=O)c2c(Cl)c(Cl)c(Cl)c(Cl)c21` [4,5,6,7-Tetrachloro-2-benzofuran-1,3-dione], the melting point rises from 45 °C to 256 °C.

Going from `Brc1ccnc(-c2ccc(Br)nc2)c1` [4,6'-dibromo-2,3'-bipyridine] to `Clc1ccc2c(Cl)ccnc2c1` [4,7-dichloroquinoline], the melting point falls from 129 °C to 85 °C.

First: CC1=CC(C)=NC2N=NC(N)=C12 (configuration not stated) [4,6-Dimethyl-2H-pyrazolo[3,4-b]pyridin-3-amine]
Second: Cc1noc(NS(=O)(=O)c2ccc(N)cc2)c1C [4-Amino-N-(3,4-dimethyl-1,2-oxazol-5-yl)benzenesulfonamide]
The melting point of the first is higher: 280 °C for the first, 196 °C for the second.

Compared with `Nc1c(Br)cc(Br)c(Cl)c1Cl` [4,6-dibromo-2,3-dichloroaniline], `Oc1cc(O)c(Cl)cc1Cl` [4,6-dichlororesorcinol] is higher in melting point: 97 °C for the first, 115 °C for the second.

First: C1=NN=C2CSCC12 (configuration not stated) [4,6-dihydro-1H-thieno[3,4-c]pyrazole]
Second: N#Cc1cncnc1N [4-aminopyrimidine-5-carbonitrile]
The melting point of the first is lower: 133 °C for the first, 255 °C for the second.

Going from `CC(C)(C)C(=O)Nc1ccncc1` [4-(2,2,2-trimethylacetamido)pyridine] to `CC(=O)Nc1ccc(C(=O)O)cc1` [4-acetamidobenzoic acid], the melting point rises from 136 °C to 260 °C.

Going from `CC(CC(=O)O)c1ccc(C(=O)O)cc1` (configuration not stated) [4-(2-carboxy-1-methylethyl)benzoic acid] to `CNc1ccc(C(=O)O)cc1` [4-(methylamino)benzoic acid], the melting point falls from 225 °C to 159 °C.

Going from `O=C(O)CCc1ccc(B(O)O)cc1` [4-(2-carboxyethyl)benzeneboronic acid] to `COC(=O)c1ccc(B(O)O)cc1` [4-(methoxycarbonyl)benzeneboronic acid], the melting point rises from 147 °C to 223 °C.

Compared with `OCCN1CCOCC1` [4-(2-hydroxyethyl)morpholine], `O=[N+]([O-])c1ccc(OCCN2CCOCC2)cc1` [4-[2-(4-nitrophenoxy)ethyl]morpholine] is higher in melting point: 2 °C for the first, 80 °C for the second.

Going from `Nc1ccc(-c2ccc3nn(-c4ccccc4)nc3c2)cc1` [4-(2-phenyl-2H-benzotriazol-5-yl)aniline] to `Nc1ccc(-c2ccccc2)cc1` [4-aminobiphenyl], the melting point falls from 143 °C to 54 °C.

First: Oc1ccc(-c2nccs2)cc1 [4-(2-thiazolyl)phenol]
Second: Oc1ccc(Cl)cc1 [4-Chlorophenol]
The melting point of the first is higher: 164 °C for the first, 44 °C for the second.

Compared with `O=C(c1ccncc1)c1ccc(Cl)cc1` [4-(4-chlorobenzoyl)pyridine], `Cc1ccc(C(=O)c2ccccc2)cc1` [4-Methylbenzophenone] is lower in melting point: 108 °C for the first, 50 °C for the second.

First: COc1ccc(C=C2N=C(c3ccccc3)OC2=O)cc1 [4-(4-methoxybenzylidene)-2-phenyl-1,3-oxazol-5(4H)-one]
Second: OCc1ccc(-c2ccccc2)cc1 [4-biphenylmethanol]
The melting point of the first is higher: 152 °C for the first, 46 °C for the second.

First: CCCN(CCC)S(=O)(=O)c1ccc(C(=O)O)cc1 [4-(Dipropylsulfamoyl)benzoic acid]
Second: CCCCCCCc1ccc(C(=O)O)cc1 [4-Heptylbenzoic acid]
The melting point of the first is higher: 195 °C for the first, 69.8 °C for the second.

Going from `O=C(OCc1ccccc1)c1ccc(B(O)O)cc1` [4-(benzyloxycarbonyl)benzeneboronic acid] to `OB(O)c1ccc(N(Cc2ccccc2)Cc2ccccc2)cc1` [4-(dibenzylamino)benzeneboronic acid], the melting point falls from 190 °C to 186 °C.

First: CCOC(=O)c1ccc(N=C=O)cc1 [4-(ethoxycarbonyl)phenyl isocyanate]
Second: CC(=O)c1ccc(N=C=S)cc1 [4-acetylphenyl isothiocyanate]
The melting point of the first is lower: 30 °C for the first, 79 °C for the second.

First: CS(=O)(=O)c1ccc(B(O)O)cc1 [4-(methylsulfonyl)benzeneboronic acid]
Second: OB(O)c1ccc(Cl)cc1 [4-chlorobenzeneboronic acid]
The melting point of the first is lower: 200 °C for the first, 273 °C for the second.

Compared with `Nc1ccc(C(F)(F)F)cc1` [4-(trifluoromethyl)aniline], `O=Cc1ccc(C(F)(F)F)cc1` [4-(trifluoromethyl)benzaldehyde] [listing 1 of 2 here] is lower in melting point: 7 °C for the first, 1.5 °C for the second.

Going from `O=Cc1ccc(C(F)(F)F)cc1` [4-(trifluoromethyl)benzaldehyde] [listing 2 of 2 here] to `OB(O)c1ccc(C(F)(F)F)cc1` [4-(trifluoromethyl)benzeneboronic acid], the melting point rises from 2 °C to 240 °C.

Going from `C=CCc1ccc(OC)c(OC)c1` [4-Allyl-1,2-dimethoxybenzene] to `COc1cc(C=O)ccc1O` [4-Hydroxy-3-methoxybenzaldehyde], the melting point rises from -4 °C to 82 °C.

Going from `Nc1ccc(Br)cc1` [4-Bromoaniline] to `Nc1ccc(I)cc1` [4-Iodoaniline], the melting point falls from 64 °C to 61 °C.

First: O=C(O)c1ccc(Br)cc1 [4-Bromobenzoic acid]
Second: NC(=O)c1ccc(Br)cc1 [4-bromobenzamide]
The melting point of the first is higher: 253 °C for the first, 192 °C for the second.

Going from `Cc1cc(O)ccc1Cl` [4-Chloro-3-methylphenol] to `Oc1ccc(Cl)c(O)c1` [4-Chlorobenzene-1,3-diol], the melting point rises from 67 °C to 107 °C.

Compared with `O=Cc1ccc(Cl)cc1` [4-Chlorobenzaldehyde], `ON=Cc1ccc(Cl)cc1` [4-Chlorobenzaldoxime] is higher in melting point: 46 °C for the first, 101 °C for the second.

Compared with `CC(=O)CC(C)(C)O` [4-Hydroxy-4-methylpentan-2-one], `COc1ccc(C(=O)O)cc1` [4-Methoxybenzoic acid] is higher in melting point: -50 °C for the first, 184 °C for the second.

Going from `Cc1ccc(N)c([N+](=O)[O-])c1` [4-Methyl-2-nitroaniline] to `Nc1ccc(Cl)cc1[N+](=O)[O-]` [4-chloro-2-nitroaniline] [listing 1 of 2 here], the melting point rises from 117 °C to 118 °C.

Compared with `Cc1ccc(N)c(N)c1` [4-Methylbenzene-1,2-diamine], `Cc1ccc(S)c(S)c1` [4-Methylbenzene-1,2-dithiol] is lower in melting point: 89.5 °C for the first, 31 °C for the second.

First: Nc1ccc([N+](=O)[O-])cc1 [4-Nitroaniline]
Second: CC(=O)Oc1ccc([N+](=O)[O-])cc1 [4-Nitrophenyl acetate]
The melting point of the first is higher: 148 °C for the first, 78 °C for the second.

First: COc1ccccc1N1CCN(CCCC(=O)c2ccc(F)cc2)CC1 [4-[4-(o-Methoxyphenyl)-1-piperazinyl]-p-fluorobutyrophenone]
Second: O=C(O)c1ccc(OCc2ccccc2)cc1F [4-benzyloxy-2-fluorobenzoic acid]
The melting point of the first is lower: 68 °C for the first, 167 °C for the second.

First: O=[N+]([O-])c1ccc(N=Nc2ccc(O)cc2O)cc1 [4-[(4-Nitrophenyl)diazenyl]benzene-1,3-diol]
Second: Cc1ccc(/N=N/c2ccc(N(C)C)cc2)cc1 [4-dimethylamino-4'-methylazobenzene]
The melting point of the first is higher: 200 °C for the first, 166 °C for the second.

Going from `CCCCCCCC(=O)Oc1ccc(/N=N/c2ccc(CCCC)cc2)cc1` [4-[(E)-(4-butylphenyl)diazenyl]phenyl octanoate] to `c1ccc(Cc2ccc(-c3ccccc3)cc2)cc1` [4-benzylbiphenyl], the melting point rises from 64 °C to 86 °C.

First: CN(CCCC(=O)c1cccnc1)N=O [4-[Methyl(nitroso)amino]-1-(pyridin-3-yl)butan-1-one]
Second: N#Cc1ccncc1I [4-cyano-3-iodopyridine]
The melting point of the first is lower: 72 °C for the first, 121 °C for the second.

First: CC(=O)c1cnn(-c2ccccc2)c1C [4-acetyl-5-methyl-1-phenyl-1h-pyrazole]
Second: CC(C)(c1ccccc1)c1ccc(O)cc1 [4-cumylphenol]
The melting point of the first is higher: 104 °C for the first, 72 °C for the second.

First: Nc1nc(O)nc2c1cnn2CCO [4-amino-1-(2-hydroxyethyl)-1H-pyrazolo[3,4-d]pyrimidin-6-ol]
Second: Cc1cc(O)c(C(C)C)cc1Cl [4-chloro-2-isopropyl-5-methylphenol]
The melting point of the first is higher: 308 °C for the first, 60 °C for the second.

First: C=Cc1ccc(N)cc1 [4-aminostyrene]
Second: Nc1ccc(Cl)cc1 [4-chloroaniline]
The melting point of the first is lower: 24 °C for the first, 70 °C for the second.

Going from `Fc1cc(OCc2ccccc2)ccc1Br` [4-benzyloxy-1-bromo-2-fluorobenzene] to `c1ccc(CC2CCNCC2)cc1` [4-benzylpiperidine], the melting point falls from 34 °C to 7 °C.

Going from `Cc1cc(Br)ccc1N=C=S` [4-bromo-2-methylphenyl isothiocyanate] to `Cc1cc(Cl)ccc1O` [4-chloro-2-methylphenol], the melting point rises from 45 °C to 47 °C.

Going from `CN(C)c1ccc(Br)cc1` [4-bromo-n,n-dimethylaniline] to `CCN(CC)c1ccc(C=O)cc1` [4-diethylaminobenzaldehyde], the melting point falls from 55 °C to 40 °C.

First: Oc1ccc(Cl)cc1-c1cc[nH]n1 [4-chloro-2-(1h-pyrazol-3-yl)phenol]
Second: COc1cc(Cl)ccc1C(=O)O [4-chloro-2-methoxybenzoic acid]
The melting point of the first is higher: 157 °C for the first, 147 °C for the second.

First: Cc1cc(Cl)ccc1B(O)O [4-chloro-2-methylbenzeneboronic acid]
Second: Cc1cc(O)ccc1Cl [4-chloro-3-methylphenol]
The melting point of the first is higher: 194 °C for the first, 67 °C for the second.

Going from `Nc1ccc(Cl)cc1[N+](=O)[O-]` [4-chloro-2-nitroaniline] [listing 2 of 2 here] to `Nc1ccc(Cl)c([N+](=O)[O-])c1` [4-chloro-3-nitroaniline], the melting point falls from 116 °C to 103 °C.

First: O=C(O)c1ccc(Cl)c([N+](=O)[O-])c1 [4-chloro-3-nitrobenzoic acid]
Second: NC(=O)c1ccc(Cl)cc1 [4-chlorobenzamide]
The melting point of the first is higher: 183 °C for the first, 178 °C for the second.

First: NS(=O)(=O)c1ccc(Cl)cc1 [4-chlorobenzenesulfonamide]
Second: Cc1ccc(Cl)cc1 [4-chlorotoluene]
The melting point of the first is higher: 146 °C for the first, 8 °C for the second.

Compared with `O=C(Cl)CCCCl` [4-chlorobutyryl chloride], `O=C(O)Cc1ccc(Cl)cc1` [4-chlorophenylacetic acid] is higher in melting point: -49 °C for the first, 106 °C for the second.

Going from `CC(C)CCC[C@@H](C)[C@H]1CC[C@H]2[C@@H]3CCC4=CC(=O)CC[C@]4(C)[C@H]3CC[C@]12C` [4-cholesten-3-one] to `N#Cc1ccc(C=O)cc1` [4-cyanobenzaldehyde], the melting point rises from 80 °C to 102 °C.
